# Experimental data from patent US20220307053A1, “REGULATABLE EXPRESSION SYSTEMS” (Novartis AG, priority 2019, published 2022).
# Entries after “also recorded” stand apart in the source; their conditions may differ.
# B1: modified SNX7 minigene (version 2): SNX7 minigene modified to reduce size and eliminate peptide expression in the absence of LMI070; tested in plasmid DL182 (nucleic acid)
# DNA: GAAGAAGAAGATATCAAGTTAGCATTTACAGATTTGGCTGAGGAGAAGAACAGGTAATTAGTGTTGTTTGATATTGCTTCATTTTAAAGTTATTTGCTCATTTAGCATTTGATATTGCTTTCTATTGATTGTCCTAACTACTCCTCTTTCCTCTCCCTTCTCCATTTTTGAAGAGTTTGCAAAGGAAGGAAAGGAGCAGAGACTTGATTGAGCAGAAAATCATTTCAGGGCCTGTTCTCTATTGTCCTTGCTATCCTGTCTTCTGTAGCTATCTGAAACCATCAACAAAGGAGCACACCATGGCATCAGCAAAAGAGTAACAACATCTTTTTTTAAGTTCATTTTGTTTTTCAGTTGATTGTATTTCAATTTTTTTACAGCTGACTTTTCTCAGAGAAGTTTTTTTTTTATTGTAAACATACTTTTTCTAGAAAGTATATTTTAAAATAACATCTTTAACCTTATCTCTGGCTGAATTATTGAATATTTGAAATTATTACATTAACAAAATTTTGTCTTACAGCAGTGGTCCCCAACCTTCTTAGCAGTAGCATCCCTCATTAAGAATTAAAATTTGTAGAAATTGACAAGGATTCTGACAAGCTGTTGGGAGAGAAGAATAGAGCAGATTGCAGTAGGAACAGTTGTGTTAGAATTTATTAATCCTTTAACACTGAAAGTAAACTATTGTTGATTGCCTCTTGGTGTGTTTCCATTATTCAGTGCTCTTGCTAAGTGGGAGTCATTCCTTACATCAACCACCAACCTTCACTTGGAAGAAGCTAGCGAAGATAAACCT
# How the values were obtained:
# [1] = test system: ssAAV9 hPGRN with SNX7 switch (version 1) in mouse brain; test: Dose response of hPGRN expression in mouse brain after oral LMI070 (ssAAV9 SNX7 switch version 1, TR-FRET); type: in vivo, FVB mice
# Method: (§1) ssAAV9 viral vector encoding hPGRN under control of synapsin promoter with SNX7 switch (version 1) was produced in HEK293 cells and purified by iodixanol. 2e10vg of AAV vector in 2 uL was injected ICV in FVB neonatal mice at P0. At 4 weeks of age, 3, 10 or 30 mg/kg of LMI070 or vehicle control was administered orally through gavage. 6-7 mice per group were taken down at specified time points (FIG. 8A). After transcardial perfusion with PBS posterior half of the left hemisphere was homogenyzed in Precellys tube. TR-FRET assay was used for measurement of human PGRN expressed from AAV vector. Sample of human cortex was used as a control for physiological PGRN levels (˜200 pg/mg).
# [2] = test system: SNX7 minigene exon B inclusion in HEK293 cells; test: RNA splicing analysis by qPCR in pJSNX-GFP transfected HEK293 cells; type: cell-based, human
# Method: (§2) HEK293 cells were maintained in complete DMEM media and seeded in 24-well plate at 100,000 cells per well densite day before transfection. Each well was transfected with 2 ug of pJSNX-GFP plasmid DNA using Lipofectamine2000 (Invitrogen) according to manufacturer's protocol. Transfection media was replaced with complete DMEM 4 hours later. Initial 1 mM stock of LMI070 in DMSO was diluted in 1/1,000-1/500,000 in DMEM to achieve concentrations 2 nm-1 uM when added to the cells in 24 hours later. Control cells received 0.1% DMSO. GFP expression was evaluated 48 hours post transfection using fluorescent microscope. […] For quantitative analysis of GFP expression, cells were trypsinized and analyzed by FACS using SONY SH-800 flow cytometer. Mean fluorescence intensity was used for relative measurement of GFP expression. […] For RNA splicing analysis, total RNA was extracted from cells using Trizol (Invitrogen) according to manufacturer's protocol. cDNA was synthesized using Superscript III 1st strand supermix for qRT-PCR (Invitrogen). Inclusion of exon B was evaluated using qPCR by measuring amounts of exonB-exonC amplified by […] […] Amounts of constitutively spliced RNA (i.e. exonA-exonC) was measured using […] […]
# [3] = test system: SNX7 minigene exon B inclusion in primary rat neurons; test: RNA splicing analysis by qPCR in pSyn-snx7-PGRN transfected primary rat neurons; type: cell-based; conditions: 100 nm LMI070
# Method: (§3) Primary rat neurons were prepared from dissected rat embryo cortices digested with papain and cultured in complete Neurobasal media in 24-well poly-D-Lysine plates (Corning) at density 150,000 cells/well for 7 days. Half of the media was replaced with fresh media day before transfection. […] Transfection media was replaced with conditioned media containing 50% fresh complete Neurobasal media 4 hours later. Next day, 1 mM stock of LMI070 in DMSO was diluted in 1/10,000 in DMEM to achieve concentrations 100 nm when added to the cells. Control cells received 0.01% DMSO. hPGRN expression was measured 6 days post transfection using TR-FRET assay. In pSyn-snx7-PGRN transfected cells, expression of hPGRN was induced by LMI070 more than 30 times comparing to DMSO-treated control (FIG. 6B). For RNA splicing analysis, total RNA was extracted from cells using Trizol (Invitrogen) according to manufacturer's protocol. cDNA was synthesized using Superscript III 1st strand supermix for qRT-PCR (Invitrogen). Inclusion of exon B was evaluated using qPCR by measuring amounts of exonB-exonC junction amplified by […] (SEQ ID NO: 103) and GCGGTTGCGAGGTTTATCT (SEQ ID NO: 104) primers pair as compared to total transgene mRNA amplified by primers specific to exon C, GCGGTTGCGAGGTTTATCT (SEQ ID NO: 104) and […] (SEQ ID NO: 105). […] Amounts of constitutively spliced RNA (i.e. exonA-exonC) was measured using […] […]
# [4] = test system: pJSNX-GFP (SNX7 minigene ON-switch) in HEK293 cells; test: GFP expression from SNX7 minigene ON-switch in HEK293 cells (fluorescent microscope, FACS); type: cell-based, human; conditions: LMI070 2 nm-1 uM, 48 hours post transfection, vs DMSO
# Method: as §2
# [5] = test system: pSyn-snx7-PGRN (SNX7 switch) in primary rat neurons; test: hPGRN expression by TR-FRET assay in pSyn-snx7-PGRN transfected primary rat neurons; type: cell-based; conditions: 100 nm LMI070, 6 days post transfection
# Method: as §3
# [6] = test system: ssAAV9 hPGRN with SNX7 switch (version 1) in mouse brain; test: Time course of hPGRN expression in mouse brain after oral LMI070 (ssAAV9 SNX7 switch version 1, TR-FRET); type: in vivo; conditions: C57Bl/6 mice
# Method: as §1, with “C57Bl/6” for “FVB”, “age,” for “age, 3, 10 or”, “4-6” for “6-7”, “7A).” for “8A).”, “[…] The transgenic protein expression returned to untreated” for “Sample of human cortex was used as a control for physiological PGRN”, “after 4 days post LMI070 administration (FIG. 7B).” for “(˜200 pg/mg).”
# [7] = test system: SNX7 minigene exon B inclusion in primary rat neurons; test: RNA splicing analysis by qPCR in pJSNX-GFP transfected primary rat neurons; type: cell-based
# Method: Primary rat neurons were prepared from dissected rat embryo cortices digested with papain and cultured in complete Neurobasal media in 24-well poly-D-Lysine plates (Corning) at density 150,000 cells/well for 7 days. Half of the media was replaced with fresh media day before transfection. Each well was transfected with 2 ug of pJSNX-GFP plasmid DNA using Lipofectamine2000 (Invitrogen) according to manufacturer's protocol, except cells were washed three times with optiMEM before adding DNA-liposomes cocktails. Transfection media was replaced with conditioned media containing 50% fresh complete Neurobasal media 4 hours later. Next day, 1 mM stock of LMI070 in DMSO was diluted in 1/1,000-1/500,000 in DMEM to achieve concentrations 2 nm-1 uM when added to the cells. Control cells received 0.1% DMSO. GFP expression was evaluated 6 days post transfection using fluorescent microscope. […] For RNA splicing analysis, total RNA was extracted from cells using Trizol (Invitrogen) according to manufacturer's protocol. cDNA was synthesized using Superscript III 1st strand supermix for qRT-PCR (Invitrogen). Inclusion of exon B was evaluated using qPCR by measuring amounts of exonB-exonC amplified by […] […] Amounts of constitutively spliced RNA (i.e. exonA-exonC) was measured using […] […]
# [8] = test system: SNX7 minigene switch in HEK293 cells; test: Comparison of SNX7 switch version 1 and version 2 in HEK293 cells in response to LMI070; type: cell-based, human; conditions: HEK293, plasmid DL182 (version 2) vs DL180 (version 1), LMI070 100 nm-1 uM, 48 hours post transfection
# Method: The modified SNX7 minigene (version 2) was inserted into a scAAV vector using molecular cloning techniques. The sequence of the vector comprising the modified SNX7 minigene (version 2) is shown in SEQ ID NO: 95. HEK293 cells were maintained in complete DMEM media and seeded in 24-well plate at 100,000 cells per well densite day before transfection. Each well was transfected with 2 ug of plasmid DNA DL180 containing SNX7 switch version 1 or plasmid DL182 containing SNX7 version 2 using Lipofectamine2000 (Invitrogen) according to manufacturer's protocol. Transfection media was replaced with complete DMEM 4 hours later. Initial 1 mM stock of LMI070 in DMSO was diluted in 1/1,000-1/500,000 in DMEM to achieve concentrations 100 nm-1 uM when added to the cells in 24 hours later. Control cells received 0.1% DMSO. GFP expression was evaluated 48 hours post transfection using fluorescent microscope.
Molecule,"transgene expression in brain vs LMI070 dose ([1]; FVB mice, 3, 10 or 30 mg/kg LMI070 orally)","accumulation of transgenic hPGRN in the brain (time course) ([1]; FVB mice, ssAAV9 ICV at P0, 3, 10 or 30 mg/kg LMI070 orally at 4 weeks)","Inclusion of exon B (exonB-exonC vs total transgene mRNA), upregulated as compared to DMSO-treated cells ([2]; HEK293, 125 nM LMI070) [times]","exonA-exonC splicing, lower as compared to control DMSO-treated cells ([2]; HEK293, 1 uM LMI070) [times]","Inclusion of exon B, upregulated as compared to DMSO-treated cells [3]","exonA-exonC splicing, lower as compared to DMSO-treated cells [3] [times]",GFP expression (mean fluorescence intensity) [4],"expression of hPGRN induced, comparing to DMSO-treated control [5]",time after which transgenic protein expression returned to untreated levels ([6]; 30 mg/kg LMI070 orally) [days],"hPGRN expression in the brain post LMI070 administration (time course) ([6]; ssAAV9 ICV at P0, 30 mg/kg LMI070 orally at 4 weeks)","Inclusion of exon B, upregulated as compared to DMSO-treated cells ([7]; 31 nM LMI070)","exonA-exonC splicing, lower as compared to control DMSO-treated cells ([7]; 500 nM LMI070) [times]",sensitivity of minigene switch in response to LMI070 (GFP expression) [8]
"CC1(C)CC(Oc2ccc(-c3ccc(-c4cn[nH]c4)cc3O)nn2)CC(C)(C)N1 [LMI070, 5-(1H-Pyrazol-4-yl)-2-(6-((2,2,6,6-tetramethylpiperidin-4-yl)oxy)pyridazin-3-yl)phenol]",dose response; also recorded: switches on transgene expression in mouse brain in dose-dependent manner,"rapid (12 hours post LMI070 administration) accumulation of transgenic hPGRN in the brain, which starts to decline at 24 hour point",75,60,more than 150 times,10,dose-dependent increase in GFP expression,more than 30 times,4,rapid and transient induction of hPGRN expression in the brain after 24 hours post LMI070 administration; also recorded: switches on transgene expression in mouse brain in time-dependent manner,more than 100 times,30,–
B1,–,–,–,–,–,–,–,–,–,–,–,–,more sensitive than the previous version
